Blank lines part the entries; values can stand above or below the molecule they belong to.
Columns and labels:
[1] = target: T1, TUT7 (Homo sapiens, UniProt Q5VYS8); assay: cryo-EM structure, […] Å; format: binding; conditions: pre-let-7g, 2 mM CaCl2, 0.5 mM UTPαS, pH 7.8; catalytic pocket of the CM (active site)
T1 construct: full-length wild type 1-1495; TEV-cleavable N-terminal His6-GST tag, C-terminal twin Strep tag; E. coli KRX
T1 sequence (Q5VYS8 1-1495): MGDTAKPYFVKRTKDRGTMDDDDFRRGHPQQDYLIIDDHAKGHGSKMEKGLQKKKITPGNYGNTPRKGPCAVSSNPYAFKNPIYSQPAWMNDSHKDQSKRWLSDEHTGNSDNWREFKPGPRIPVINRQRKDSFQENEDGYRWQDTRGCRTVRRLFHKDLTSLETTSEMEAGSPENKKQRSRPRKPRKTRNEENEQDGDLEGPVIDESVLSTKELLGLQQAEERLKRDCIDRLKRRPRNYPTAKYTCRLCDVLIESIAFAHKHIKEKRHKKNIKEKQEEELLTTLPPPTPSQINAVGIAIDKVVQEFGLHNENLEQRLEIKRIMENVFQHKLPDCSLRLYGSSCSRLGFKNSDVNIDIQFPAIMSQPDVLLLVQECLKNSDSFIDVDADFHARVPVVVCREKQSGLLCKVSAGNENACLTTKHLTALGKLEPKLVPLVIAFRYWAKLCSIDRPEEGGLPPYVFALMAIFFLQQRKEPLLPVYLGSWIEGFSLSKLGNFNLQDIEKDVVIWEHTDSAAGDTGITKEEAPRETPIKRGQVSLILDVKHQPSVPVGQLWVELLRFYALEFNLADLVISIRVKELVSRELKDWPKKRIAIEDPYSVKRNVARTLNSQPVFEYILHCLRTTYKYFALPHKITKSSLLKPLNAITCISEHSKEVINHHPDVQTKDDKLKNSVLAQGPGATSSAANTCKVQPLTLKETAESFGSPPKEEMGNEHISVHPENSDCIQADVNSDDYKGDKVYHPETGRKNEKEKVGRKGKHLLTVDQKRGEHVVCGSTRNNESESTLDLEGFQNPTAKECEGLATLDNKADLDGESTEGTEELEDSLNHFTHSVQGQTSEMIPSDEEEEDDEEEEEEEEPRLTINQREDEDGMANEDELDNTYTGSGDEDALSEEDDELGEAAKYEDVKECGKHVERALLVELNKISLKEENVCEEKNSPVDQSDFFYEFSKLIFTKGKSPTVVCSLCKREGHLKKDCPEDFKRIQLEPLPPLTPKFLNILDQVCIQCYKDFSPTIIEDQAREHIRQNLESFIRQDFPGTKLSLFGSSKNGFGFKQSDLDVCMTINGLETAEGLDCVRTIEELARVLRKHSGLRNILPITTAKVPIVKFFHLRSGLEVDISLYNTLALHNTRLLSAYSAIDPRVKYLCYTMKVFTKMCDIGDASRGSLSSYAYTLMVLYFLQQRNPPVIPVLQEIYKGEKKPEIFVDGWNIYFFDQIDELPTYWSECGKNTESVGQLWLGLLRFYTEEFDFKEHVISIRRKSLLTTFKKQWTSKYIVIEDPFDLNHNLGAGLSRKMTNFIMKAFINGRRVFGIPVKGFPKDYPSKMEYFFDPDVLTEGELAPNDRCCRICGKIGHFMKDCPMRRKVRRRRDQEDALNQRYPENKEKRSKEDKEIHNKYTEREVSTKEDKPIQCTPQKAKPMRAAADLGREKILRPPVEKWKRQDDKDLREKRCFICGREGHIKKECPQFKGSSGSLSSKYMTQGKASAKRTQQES

[2] = target: T1, TUT7; assay: in vitro uridylation of labelled pre-let-7g, denaturing PAGE; format: biochemical; conditions: pre-let-7g RNA co-substrate, no LIN28A, 0.5 mM UTP, 5 mM MgCl2, 50 µM ZnCl2, pH 7.8, 37 °C
[3] = target: T2, TUT7 (ZCCHC6) (Homo sapiens, UniProt Q5VYS8 1-1495); assay: cryo-EM; UTPalphaS; binary complex, 3.55 A; EMSA: 20 mM HEPES pH 7.8, 100 mM NaCl, 2 mM CaCl2, 50 uM ZnCl2, 5% glycerol, 5 mM DTT, 0.5 mM UTP, RNase inhibitor, on ice 30 min; 0.1 uM RNA, 0.2 uM TUT, 0.3 uM LIN28A; native gel in 1x TBE at 4 C; conditions: protein: recombinant; tags: N-term His6-GST (TEV cleavable), C-term twin-Strep; hairpin, 1 nt 3' overhang
T2 sequence: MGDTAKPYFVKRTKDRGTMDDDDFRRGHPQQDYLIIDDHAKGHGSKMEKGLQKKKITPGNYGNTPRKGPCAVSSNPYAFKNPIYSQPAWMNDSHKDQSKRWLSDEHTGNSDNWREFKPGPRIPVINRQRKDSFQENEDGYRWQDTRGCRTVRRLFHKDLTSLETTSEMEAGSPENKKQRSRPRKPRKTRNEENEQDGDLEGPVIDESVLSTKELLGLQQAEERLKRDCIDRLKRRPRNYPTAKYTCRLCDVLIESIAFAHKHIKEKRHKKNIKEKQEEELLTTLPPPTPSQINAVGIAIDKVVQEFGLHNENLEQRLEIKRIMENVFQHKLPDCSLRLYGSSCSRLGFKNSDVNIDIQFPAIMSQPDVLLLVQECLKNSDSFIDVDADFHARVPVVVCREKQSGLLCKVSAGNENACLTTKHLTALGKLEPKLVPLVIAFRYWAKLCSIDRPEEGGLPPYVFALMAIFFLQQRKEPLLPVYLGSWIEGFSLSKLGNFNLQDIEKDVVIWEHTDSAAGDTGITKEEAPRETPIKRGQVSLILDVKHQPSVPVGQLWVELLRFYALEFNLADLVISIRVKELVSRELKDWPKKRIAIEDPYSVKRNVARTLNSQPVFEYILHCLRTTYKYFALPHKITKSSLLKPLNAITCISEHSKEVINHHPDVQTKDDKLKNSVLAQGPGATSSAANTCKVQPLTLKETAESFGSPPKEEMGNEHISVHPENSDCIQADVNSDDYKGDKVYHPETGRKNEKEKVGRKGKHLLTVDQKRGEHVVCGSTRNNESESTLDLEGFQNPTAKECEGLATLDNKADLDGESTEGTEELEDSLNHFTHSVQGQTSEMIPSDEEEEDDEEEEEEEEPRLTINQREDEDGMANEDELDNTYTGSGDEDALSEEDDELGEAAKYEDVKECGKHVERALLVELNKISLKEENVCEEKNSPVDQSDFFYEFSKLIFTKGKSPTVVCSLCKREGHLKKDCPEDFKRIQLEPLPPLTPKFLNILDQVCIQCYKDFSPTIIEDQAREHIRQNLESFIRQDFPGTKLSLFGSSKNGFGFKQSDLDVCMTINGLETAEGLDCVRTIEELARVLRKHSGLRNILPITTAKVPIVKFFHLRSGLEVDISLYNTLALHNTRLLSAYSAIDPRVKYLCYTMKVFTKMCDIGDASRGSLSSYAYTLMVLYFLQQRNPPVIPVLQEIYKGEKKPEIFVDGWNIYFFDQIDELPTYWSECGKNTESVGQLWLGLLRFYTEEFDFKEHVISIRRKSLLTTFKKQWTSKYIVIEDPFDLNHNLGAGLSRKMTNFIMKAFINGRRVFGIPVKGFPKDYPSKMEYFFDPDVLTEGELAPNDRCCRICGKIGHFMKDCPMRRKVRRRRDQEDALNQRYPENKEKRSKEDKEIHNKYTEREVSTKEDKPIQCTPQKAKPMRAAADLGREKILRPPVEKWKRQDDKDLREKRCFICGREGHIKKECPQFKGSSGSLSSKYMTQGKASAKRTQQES

[4] = target: T3, human terminal uridylyltransferase 7 (TUT7), full length (1-1495) (human, UniProt Q5VYS8 1-1495); assay: cryo-EM structure; ternary complexes of TUT7 or TUT4 with pre-let-7g RNA and LIN28A mixed at a molar ratio of 1:1.5:2, overnight on ice with 0.5 mM UTPalphaS, 2 mM DTT, 2 mM CaCl2, then SEC in 20 mM HEPES pH 7.8, 100 mM NaCl; conditions: both partners purified
T3 construct: TUT7 (ZCCHC6), human, residues 1-1495, wild type, synthesised gene; The His6-GST tag is cleavable by tobacco etch virus protease; Unmodified (not PEGylated) enzyme was used for the complexes; also called ZCCHC6; source: E. coli KRX, purified (Strep-XT 4Flow beads, Heparin column, size-exclusion chromatography)
T3 sequence (looked up): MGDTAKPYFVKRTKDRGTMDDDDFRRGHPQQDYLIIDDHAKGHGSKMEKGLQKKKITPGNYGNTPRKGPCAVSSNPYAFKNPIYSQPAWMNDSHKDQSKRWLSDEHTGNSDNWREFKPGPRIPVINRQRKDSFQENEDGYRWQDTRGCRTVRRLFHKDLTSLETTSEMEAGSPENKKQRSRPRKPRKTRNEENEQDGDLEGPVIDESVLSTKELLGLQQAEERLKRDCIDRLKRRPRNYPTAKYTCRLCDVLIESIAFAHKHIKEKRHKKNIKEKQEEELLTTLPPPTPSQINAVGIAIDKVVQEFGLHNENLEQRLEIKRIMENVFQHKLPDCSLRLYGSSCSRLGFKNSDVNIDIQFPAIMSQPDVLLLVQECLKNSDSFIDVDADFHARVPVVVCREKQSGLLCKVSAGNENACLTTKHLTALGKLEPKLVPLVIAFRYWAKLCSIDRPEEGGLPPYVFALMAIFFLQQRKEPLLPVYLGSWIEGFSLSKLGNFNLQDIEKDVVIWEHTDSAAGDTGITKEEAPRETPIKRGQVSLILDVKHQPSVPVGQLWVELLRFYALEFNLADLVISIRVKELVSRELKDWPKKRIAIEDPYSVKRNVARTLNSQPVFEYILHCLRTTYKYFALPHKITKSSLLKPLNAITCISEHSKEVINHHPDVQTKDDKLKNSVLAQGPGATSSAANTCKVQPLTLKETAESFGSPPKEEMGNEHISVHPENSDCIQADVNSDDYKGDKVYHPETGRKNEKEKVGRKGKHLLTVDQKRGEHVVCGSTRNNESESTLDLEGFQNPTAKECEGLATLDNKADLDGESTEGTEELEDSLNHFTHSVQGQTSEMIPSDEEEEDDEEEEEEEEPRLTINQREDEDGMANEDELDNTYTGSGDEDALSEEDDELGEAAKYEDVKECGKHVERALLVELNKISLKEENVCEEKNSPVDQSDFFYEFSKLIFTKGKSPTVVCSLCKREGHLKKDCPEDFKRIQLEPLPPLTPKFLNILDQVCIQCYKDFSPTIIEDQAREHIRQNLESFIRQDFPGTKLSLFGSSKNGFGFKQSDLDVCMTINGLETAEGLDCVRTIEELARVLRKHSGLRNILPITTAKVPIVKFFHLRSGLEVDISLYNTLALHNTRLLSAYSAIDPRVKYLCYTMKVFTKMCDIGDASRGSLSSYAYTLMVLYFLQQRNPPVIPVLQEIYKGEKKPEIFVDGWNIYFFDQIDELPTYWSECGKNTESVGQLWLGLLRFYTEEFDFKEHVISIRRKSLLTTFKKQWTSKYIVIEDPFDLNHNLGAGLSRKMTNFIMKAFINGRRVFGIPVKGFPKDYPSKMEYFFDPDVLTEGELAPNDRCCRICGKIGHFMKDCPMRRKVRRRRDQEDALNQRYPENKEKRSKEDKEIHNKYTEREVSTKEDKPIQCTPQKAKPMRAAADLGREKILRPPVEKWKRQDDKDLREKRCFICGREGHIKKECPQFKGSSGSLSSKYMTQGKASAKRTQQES

Molecule: O=c1ccn([C@@H]2O[C@H](COP(O)(=S)OP(=O)(O)OP(=O)(O)O)[C@@H](O)[C@H]2O)c(=O)[nH]1 (stereo partly shown) [UTPαS]
cryo-EM structure, 3.55 Å [1]: UTPαS bound and stabilized by the critical residues; F1045, S1047, Q1124, L1126, N1130

Molecule: O=c1ccn([C@@H]2O[C@H](COP(=O)(O)OP(=O)(O)OP(=O)(O)O)[C@@H](O)[C@H]2O)c(=O)[nH]1 [UTP]
in vitro uridylation of labelled pre-let-7g, denaturing PAGE [2]: In vitro activity assays for TUT7 showing mono-uridylation activity in the absence of LIN28A

B1: pre-let-7g (structured_RNA)
RNA: UGAGGUAGUAGUUUGUACAGUUUGAGGGUCUAUGAUACCACCCGGUACAGGAGAUAACUGUACAGGCCACUGCCUUGC
binding result [3]: binds

binding result [4]: binds
B2: human LIN28A (natural protein)
chain: MGSVSNQQFAGGCAKAAEEAPEEAPEDAARAADEPQLLHGAGICKWFNVRMGFGFLSMTARAGVALDPPVDVFVHQSKLHMEGFRSLKEGEAVEFTFKKSAKGLESIRVTGPGGVFCIGSERRPKGKSMQKRRSKGDRCYNCGGLDHHAKECKLPPQPKKCHFCQSISHMVASCPLKAQQGPSAQGKPTYFREEEEEIHSPTLLPEAQN
notes: LIN28A, human, synthesised gene; Expressed as an N-terminal His6-GST fusion; removal of the tag is not described; The phrase 'full-length wild-type human TUT7 and human LIN28A' may or may not mean that LIN28A was full length; Only the ZK domain is resolved in the maps
